Each structure is given as a SMILES string.

Prostaglandin G/H synthase 1, sequence (P23219 whole entry): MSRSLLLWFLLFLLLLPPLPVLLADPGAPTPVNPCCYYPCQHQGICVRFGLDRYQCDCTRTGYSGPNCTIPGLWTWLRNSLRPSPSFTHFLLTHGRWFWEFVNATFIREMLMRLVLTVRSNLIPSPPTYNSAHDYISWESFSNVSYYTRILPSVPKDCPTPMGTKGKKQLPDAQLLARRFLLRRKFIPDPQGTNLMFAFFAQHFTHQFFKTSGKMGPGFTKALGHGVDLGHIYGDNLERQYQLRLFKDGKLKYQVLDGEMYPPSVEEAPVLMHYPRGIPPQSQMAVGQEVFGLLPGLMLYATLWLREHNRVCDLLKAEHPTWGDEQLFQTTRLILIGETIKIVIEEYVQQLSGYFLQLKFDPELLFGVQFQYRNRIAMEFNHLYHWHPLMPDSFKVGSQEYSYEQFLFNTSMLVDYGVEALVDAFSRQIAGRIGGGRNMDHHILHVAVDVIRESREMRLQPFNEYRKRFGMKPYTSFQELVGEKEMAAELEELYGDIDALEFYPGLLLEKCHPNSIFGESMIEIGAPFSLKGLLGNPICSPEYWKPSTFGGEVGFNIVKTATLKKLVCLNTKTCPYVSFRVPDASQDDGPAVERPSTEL

The first experiment has as its target T1, Alpha-1B adrenergic receptor (Rattus norvegicus, UniProt P15823).
T1 sequence (P15823 whole entry): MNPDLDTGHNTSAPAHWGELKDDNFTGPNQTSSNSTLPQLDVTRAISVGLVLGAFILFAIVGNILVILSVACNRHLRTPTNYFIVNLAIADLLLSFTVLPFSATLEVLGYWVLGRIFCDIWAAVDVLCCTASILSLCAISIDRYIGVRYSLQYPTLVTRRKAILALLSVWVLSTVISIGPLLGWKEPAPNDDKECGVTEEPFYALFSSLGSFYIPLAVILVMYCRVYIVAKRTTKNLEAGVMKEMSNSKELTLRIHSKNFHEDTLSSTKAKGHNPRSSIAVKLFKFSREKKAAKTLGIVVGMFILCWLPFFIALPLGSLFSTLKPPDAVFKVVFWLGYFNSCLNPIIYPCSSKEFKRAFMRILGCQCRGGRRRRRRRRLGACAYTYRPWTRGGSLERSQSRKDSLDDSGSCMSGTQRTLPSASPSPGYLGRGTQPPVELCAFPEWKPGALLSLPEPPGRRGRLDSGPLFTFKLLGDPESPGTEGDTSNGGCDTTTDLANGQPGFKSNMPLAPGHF
Briefly: DRUGMATRIX: Alpha-1B adrenergic receptor radioligand binding (ligand: prazosin). The format is cell membranes, Wistar, Liver, Membrane. Particulars: Not Active = under 50% inhibition at 10 µM.
With `CC1(C)O[C@@H]2C[C@H]3[C@@H]4C[C@H](F)C5=CC(=O)C=C[C@]5(C)[C@@]4(F)[C@@H](O)C[C@]3(C)[C@]2(C(=O)CO)O1` [FLUOCINOLONE ACETONIDE], the IC50 entry was “Not Active”.
For the compound `CC1(C)O[C@@H]2C[C@H]3[C@@H]4C[C@H](F)C5=CC(=O)CC[C@]5(C)[C@H]4[C@@H](O)C[C@]3(C)[C@]2(C(=O)CO)O1` [FLURANDRENOLIDE], the IC50 entry is listed as “Not Active”.
On the same count and under the same terms, then `Cc1ccc(S(=O)(=O)NC(=O)NN2CC3CCCC3C2)cc1` (configuration not stated) [GLICLAZIDE], with “Not Active”.

The next experiment has as its target T2, Thromboxane-A synthase (Homo sapiens, UniProt P24557).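 Note: enzyme inhibition assay with PGH2 supplied as substrate; in other assays of this panel Not Active means under 50% inhibition at 10 µM.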
T2 sequence (P24557 whole entry): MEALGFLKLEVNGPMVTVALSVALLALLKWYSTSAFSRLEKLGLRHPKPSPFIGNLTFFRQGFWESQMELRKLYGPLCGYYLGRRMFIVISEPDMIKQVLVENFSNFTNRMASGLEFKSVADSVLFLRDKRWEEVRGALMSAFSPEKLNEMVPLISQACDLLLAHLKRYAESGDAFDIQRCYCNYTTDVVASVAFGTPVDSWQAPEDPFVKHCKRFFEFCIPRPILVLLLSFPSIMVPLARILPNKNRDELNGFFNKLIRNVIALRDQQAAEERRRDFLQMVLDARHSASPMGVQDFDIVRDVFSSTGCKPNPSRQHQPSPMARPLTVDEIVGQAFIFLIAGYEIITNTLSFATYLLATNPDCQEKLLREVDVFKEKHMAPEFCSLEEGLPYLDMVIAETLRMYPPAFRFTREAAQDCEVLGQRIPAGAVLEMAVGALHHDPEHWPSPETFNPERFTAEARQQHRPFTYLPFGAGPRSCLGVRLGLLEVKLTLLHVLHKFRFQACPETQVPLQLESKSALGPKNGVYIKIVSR
Briefly: biochemical. It counts as tissue-based, Platelet. The note with it: platelet.
On to `CC1(C)O[C@@H]2C[C@H]3[C@@H]4C[C@H](F)C5=CC(=O)C=C[C@]5(C)[C@@]4(F)[C@@H](O)C[C@]3(C)[C@]2(C(=O)CO)O1` [FLUOCINOLONE ACETONIDE], for which the IC50 entry is “Not Active”.
In the case of `CC1(C)O[C@@H]2C[C@H]3[C@@H]4C[C@H](F)C5=CC(=O)CC[C@]5(C)[C@H]4[C@@H](O)C[C@]3(C)[C@]2(C(=O)CO)O1` [FLURANDRENOLIDE], the IC50 entry is “Not Active”.
The same measure, in the same setting: then `Cc1ccc(S(=O)(=O)NC(=O)NN2CC3CCCC3C2)cc1` (configuration not stated) [GLICLAZIDE], with “Not Active”.

A further experiment addresses Prostaglandin G/H synthase 1 (Homo sapiens, UniProt P23219). Briefly: biochemical. Particulars: platelet. It counts as tissue-based, Platelet.
Take `CC1(C)O[C@@H]2C[C@H]3[C@@H]4C[C@H](F)C5=CC(=O)C=C[C@]5(C)[C@@]4(F)[C@@H](O)C[C@]3(C)[C@]2(C(=O)CO)O1` [FLUOCINOLONE ACETONIDE]: the IC50 result is given as “Not Active”.
With `CC1(C)O[C@@H]2C[C@H]3[C@@H]4C[C@H](F)C5=CC(=O)CC[C@]5(C)[C@H]4[C@@H](O)C[C@]3(C)[C@]2(C(=O)CO)O1` [FLURANDRENOLIDE], the IC50 result is given as “Not Active”.
Turning to `Cc1ccc(S(=O)(=O)NC(=O)NN2CC3CCCC3C2)cc1` (configuration not stated) [GLICLAZIDE], the IC50 entry was “Not Active”.

The target in another experiment is Glycine receptor (Rattus norvegicus, UniProt P22771+P24524+P07727+P20781). Note: in other assays of this panel Not Active means under 50% inhibition at 10 µM.
Test: not given
The format is cell membranes, Wistar, Spinal cord, Membrane.
Details: not given
For `CC1(C)O[C@@H]2C[C@H]3[C@@H]4C[C@H](F)C5=CC(=O)C=C[C@]5(C)[C@@]4(F)[C@@H](O)C[C@]3(C)[C@]2(C(=O)CO)O1` [FLUOCINOLONE ACETONIDE], the IC50 entry is reported as “Not Active”.
For the compound `CC1(C)O[C@@H]2C[C@H]3[C@@H]4C[C@H](F)C5=CC(=O)CC[C@]5(C)[C@H]4[C@@H](O)C[C@]3(C)[C@]2(C(=O)CO)O1` [FLURANDRENOLIDE], the IC50 result was “Not Active”.
As for `Cc1ccc(S(=O)(=O)NC(=O)NN2CC3CCCC3C2)cc1` (configuration not stated) [GLICLAZIDE], the IC50 result is given as “Not Active”.

Another experiment concerns the target T3, Cathepsin G (Homo sapiens, UniProt P08311).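 Note: inhibition of Cathepsin G enzyme activity, tested on an AMC-conjugated peptide substrate; in other assays of this panel Not Active means under 50% inhibition at 10 µM.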
T3 sequence (P08311 whole entry): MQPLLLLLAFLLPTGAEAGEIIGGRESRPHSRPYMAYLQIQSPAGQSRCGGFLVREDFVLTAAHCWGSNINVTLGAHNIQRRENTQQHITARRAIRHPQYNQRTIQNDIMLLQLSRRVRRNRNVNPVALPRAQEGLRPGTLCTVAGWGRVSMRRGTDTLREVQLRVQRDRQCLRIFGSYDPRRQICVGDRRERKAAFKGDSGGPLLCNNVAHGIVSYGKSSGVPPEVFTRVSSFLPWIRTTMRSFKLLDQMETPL
Test: not given
It counts as tissue-based. The note with it: neutrophil.
As for `CC1(C)O[C@@H]2C[C@H]3[C@@H]4C[C@H](F)C5=CC(=O)C=C[C@]5(C)[C@@]4(F)[C@@H](O)C[C@]3(C)[C@]2(C(=O)CO)O1` [FLUOCINOLONE ACETONIDE], the IC50 entry is listed as “Not Active”.
For the compound `CC1(C)O[C@@H]2C[C@H]3[C@@H]4C[C@H](F)C5=CC(=O)CC[C@]5(C)[C@H]4[C@@H](O)C[C@]3(C)[C@]2(C(=O)CO)O1` [FLURANDRENOLIDE], the IC50 result is “Not Active”.
In the case of `Cc1ccc(S(=O)(=O)NC(=O)NN2CC3CCCC3C2)cc1` (configuration not stated) [GLICLAZIDE], the IC50 entry is listed as “Not Active”.

The target of another experiment is T4, Interstitial collagenase (Homo sapiens, UniProt P03956).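 Note: MMP-1 enzyme inhibition assay using a peptide substrate; in other assays of this panel Not Active means under 50% inhibition at 10 µM.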
T4 sequence (P03956 whole entry): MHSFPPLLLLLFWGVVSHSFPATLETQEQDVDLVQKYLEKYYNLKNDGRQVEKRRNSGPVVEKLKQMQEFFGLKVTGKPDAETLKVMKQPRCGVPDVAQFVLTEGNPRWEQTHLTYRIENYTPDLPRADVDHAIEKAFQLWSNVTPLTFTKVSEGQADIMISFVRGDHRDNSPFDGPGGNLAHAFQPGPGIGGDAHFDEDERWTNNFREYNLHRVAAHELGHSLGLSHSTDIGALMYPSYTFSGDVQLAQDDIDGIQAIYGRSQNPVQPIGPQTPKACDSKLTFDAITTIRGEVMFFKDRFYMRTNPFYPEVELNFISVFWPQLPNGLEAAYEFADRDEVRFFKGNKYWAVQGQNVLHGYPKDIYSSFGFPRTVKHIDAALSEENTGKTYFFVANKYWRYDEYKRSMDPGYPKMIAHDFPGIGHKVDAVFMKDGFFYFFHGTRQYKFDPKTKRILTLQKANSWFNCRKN
Briefly: biochemical. The format is tissue-based, Rheumatoid synovial fibroblasts.
Details: not given
Take `CC1(C)O[C@@H]2C[C@H]3[C@@H]4C[C@H](F)C5=CC(=O)C=C[C@]5(C)[C@@]4(F)[C@@H](O)C[C@]3(C)[C@]2(C(=O)CO)O1` [FLUOCINOLONE ACETONIDE]: the IC50 entry was “Not Active”.
With `CC1(C)O[C@@H]2C[C@H]3[C@@H]4C[C@H](F)C5=CC(=O)CC[C@]5(C)[C@H]4[C@@H](O)C[C@]3(C)[C@]2(C(=O)CO)O1` [FLURANDRENOLIDE], the IC50 result is “Not Active”.
With `Cc1ccc(S(=O)(=O)NC(=O)NN2CC3CCCC3C2)cc1` (configuration not stated) [GLICLAZIDE], the IC50 entry was “Not Active”.

For a further experiment, the target named is T5, Leukotriene C4 synthase (Cavia porcellus, UniProt A6XA80).
T5 sequence (A6XA80 whole entry): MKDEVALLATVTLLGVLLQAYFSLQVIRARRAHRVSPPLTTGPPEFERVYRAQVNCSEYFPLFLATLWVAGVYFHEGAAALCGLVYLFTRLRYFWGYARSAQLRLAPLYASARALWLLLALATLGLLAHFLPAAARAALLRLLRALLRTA
Test: not given
It counts as tissue-based, Lung.
Details: not given
Regarding `CC1(C)O[C@@H]2C[C@H]3[C@@H]4C[C@H](F)C5=CC(=O)C=C[C@]5(C)[C@@]4(F)[C@@H](O)C[C@]3(C)[C@]2(C(=O)CO)O1` [FLUOCINOLONE ACETONIDE], the IC50 result is listed as “Not Active”.
As for `CC1(C)O[C@@H]2C[C@H]3[C@@H]4C[C@H](F)C5=CC(=O)CC[C@]5(C)[C@H]4[C@@H](O)C[C@]3(C)[C@]2(C(=O)CO)O1` [FLURANDRENOLIDE], the IC50 entry is “Not Active”.
Take `Cc1ccc(S(=O)(=O)NC(=O)NN2CC3CCCC3C2)cc1` (configuration not stated) [GLICLAZIDE]: the IC50 entry is given as “Not Active”.

A further experiment deals with T6, C-X-C chemokine receptor type 1 (Homo sapiens, UniProt P25024).
T6 sequence (P25024 whole entry): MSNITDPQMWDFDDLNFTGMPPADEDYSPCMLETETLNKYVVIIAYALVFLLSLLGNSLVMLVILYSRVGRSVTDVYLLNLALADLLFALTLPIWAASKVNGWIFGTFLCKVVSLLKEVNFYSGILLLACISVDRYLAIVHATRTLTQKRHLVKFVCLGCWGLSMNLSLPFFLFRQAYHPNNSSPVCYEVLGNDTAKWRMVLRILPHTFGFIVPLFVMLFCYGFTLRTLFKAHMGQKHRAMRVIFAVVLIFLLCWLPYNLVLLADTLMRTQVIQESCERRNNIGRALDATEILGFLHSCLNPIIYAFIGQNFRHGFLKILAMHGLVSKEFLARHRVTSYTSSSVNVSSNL
Test: not given
Details: not given
Take `CC1(C)O[C@@H]2C[C@H]3[C@@H]4C[C@H](F)C5=CC(=O)C=C[C@]5(C)[C@@]4(F)[C@@H](O)C[C@]3(C)[C@]2(C(=O)CO)O1` [FLUOCINOLONE ACETONIDE]: the IC50 result is “Not Active”.
On the same count and under the same terms, then `CC1(C)O[C@@H]2C[C@H]3[C@@H]4C[C@H](F)C5=CC(=O)CC[C@]5(C)[C@H]4[C@@H](O)C[C@]3(C)[C@]2(C(=O)CO)O1` [FLURANDRENOLIDE], with “Not Active”; and `Cc1ccc(S(=O)(=O)NC(=O)NN2CC3CCCC3C2)cc1` (configuration not stated) [GLICLAZIDE], with “Not Active”.

For a further experiment, the target named is T7, Neutrophil elastase (Homo sapiens, UniProt P08246).
T7 sequence (P08246 whole entry): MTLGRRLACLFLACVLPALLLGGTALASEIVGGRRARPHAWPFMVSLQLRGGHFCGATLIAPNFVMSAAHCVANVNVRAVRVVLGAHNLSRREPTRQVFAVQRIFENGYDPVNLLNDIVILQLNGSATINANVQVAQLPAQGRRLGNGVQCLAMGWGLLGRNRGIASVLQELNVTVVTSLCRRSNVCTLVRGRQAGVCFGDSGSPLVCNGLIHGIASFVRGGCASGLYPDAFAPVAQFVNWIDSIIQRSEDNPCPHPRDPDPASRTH
Test: not given
It counts as tissue-based.
Details: not given
Consider `CC1(C)O[C@@H]2C[C@H]3[C@@H]4C[C@H](F)C5=CC(=O)C=C[C@]5(C)[C@@]4(F)[C@@H](O)C[C@]3(C)[C@]2(C(=O)CO)O1` [FLUOCINOLONE ACETONIDE], for which the IC50 entry was “Not Active”.
The same measure, in the same setting: then `CC1(C)O[C@@H]2C[C@H]3[C@@H]4C[C@H](F)C5=CC(=O)CC[C@]5(C)[C@H]4[C@@H](O)C[C@]3(C)[C@]2(C(=O)CO)O1` [FLURANDRENOLIDE], with “Not Active”.
Same read-out and setting: then `Cc1ccc(S(=O)(=O)NC(=O)NN2CC3CCCC3C2)cc1` (configuration not stated) [GLICLAZIDE], with “Not Active”.

These data come from ChEMBL document CHEMBL1909046, “DrugMatrix in vitro pharmacology data”.
